Measurements as given in patent US5698547A, “Cephalosporin antibiotics” (Microcide Pharmaceuticals, Inc., priority 1995, dated 1997).
In brackets after ≈: the same amount, converted by molar mass.

Tested on: S. aureus Col (Meth^R) (lac^-)
Test: MIC by agar dilution, S. aureus Col (Meth^R) (lac^-)
Type: cell-based
Details: Staphylococcus aureus; agar dilution; S. aureus Col (Meth^R) (lac^-); read-out: MIC
Protocol: The compounds of the invention were evaluated against several β-lactamresistant bacteria strains by determining the minimum inhibitory concentration (MIC, μg/ml) of each compound with respect to each strain. The MIC, the lowest concentration of antibiotic which inhibits growth of the test organism, was determined by the agar dilution method.
To determine the MIC for bacterial isolates, the test compound was incorporated in a series of two-fold dilutions into liquified Mueller-Hinton agar. Upon solidification, a number of different bacterial strains were spot inoculated with a replicating device onto the agar surface. […] The procedures used in these studies have been standardized by the National Committee for Clinical Laboratory Standards (NCCLS), as per the NCCLS publication entitled METHODS FOR DILUTION ANTIMICROBIAL SUSCEPTIBILITY TESTS (1991), which is incorporated herein by reference.
Aliquots of antimicrobial agents were prepared in phosphate buffered saline (PBS) at pH 7.2. Tween 20 or DMSO was used as a solubilizing vehicle as needed. Standard methods of vortexing, sonicating and gentle heat were used to facilitate solubilizing the test agent. Typically, the concentration of the stock solution was 10× that of the highest drug concentration tested. A 1.28 mg/mL stock solution was used with a subsequent highest working concentration of 128 μg/mL. Serial two-fold dilutions were done through ≤0.25 μg/mL. Each drug level was tested in duplicate. Two-fold drug dilutions were done in sterile 50 mL tubes with a final drug volume of 5 mL. Upon the addition of 45 mL of molten agar, a 10-fold dilution resulted. Two, 25 mL. plates were then poured into 15×150 mm square Petri plates with grids and allowed to harden.
A control plate with a reference drug, either cefotaxime, vancomycin or imipenem, was used as the positive growth control. Stock concentrations of reference antibiotics were prepared and frozen at -80° C. Upon preparation, the control plates were sealed and stored in the refrigerator for up to 1 week prior to use; however, imipenem control plates had to be prepared just prior to use. All test plates were used within 24 hours of preparation.
Satisfactory results were obtained where the inoculum contained about 10^4 colony forming units (cfu) ±0.5 logs. Starting with pure cultures of the test isolates on agar plates, a few isolated colonies were transferred to a tube of nutrient broth and allowed to grow 4-6 hours at 35°-36° C. to reach log-phase growth. Dropwise addition of the broth culture to PBS was done to match a 0.5 McFarland turbidity standard equal to 10^8 cfu/mL. This was further diluted ten-fold in PBS to reach a working inoculum concentration of 10^7 cfu/mL. When 1 μL of the working inoculum was applied to the agar surface a concentration of about 10^4 cfu per spot was obtained.
Disposable sterile 1 μL loops were used to inoculate test plates, with each isolate in a designated grid on the agar plate. An alternate method of inoculation involved the use of a replica plater, a device with 48 steel pins allowing the simultaneous inoculation of multiple isolates. After the spots had dried, the plates were incubated at 35°-36° C. for 16-20 hours. Endpoints were assessed as the minimum inhibitory concentration (MIC) of antimicrobial agent.
The novel agents of this invention are notable for their enhanced activity against S. aureus Col and Enterococci (E. faecium and E. faecalis). The S. aureus Col strain is a high-level PBP2a producer, whereas S. aureus Col 8A, its isogenic partner, lacks PBP2a. […] Thus, the compounds of the present invention are effective against PBP2a-producing bacteria.

| SMILES | MIC [µg/mL] |
| --- | --- |
| O=C(Cc1cccs1)N[C@@H]1C(=O)N2C(C(=O)O)=C(Sc3cc(Cl)ccc3Cl)CS[C@H]12 [Cmpd 26, (7R)-7-[(2-Thienylacetyl)amino]-3-(2,5-dichlorophenylthio)-3-cephem-4-carboxylic acid] | 0.5 (≈ 0.997 µM) |
| O=C(Cc1ccccc1)N[C@@H]1C(=O)N2C(C(=O)O)=C(Sc3ccccc3-c3ccco3)CS[C@H]12 [Cmpd 27, (7R)-7-[(Phenylacetyl)amino]-3-(2-(2-furyl)phenylthio)-3-cephem-4-carboxylic acid] | 1 (≈ 2.03 µM) |
| O=C(Cc1ccccc1)N[C@@H]1C(=O)N2C(C(=O)O)=C(Sc3ccc(Cl)cc3Cl)CS[C@H]12 [Cmpd 28, (7R)-7-[(Phenylacetyl)amino]-3-(2,4-dichlorophenylthio)-3-cephem-4-carboxylic acid] | 1 (≈ 2.02 µM) |
| COc1ccc(CC(=O)N[C@@H]2C(=O)N3C(C(=O)O)=C(Sc4ccccc4I)CS[C@H]23)cc1 [Cmpd 29, (7R)-7-[(p-Methoxyphenylacetyl)amino]-3-(o-iodophenylthio)-3-cephem-4-carboxylic acid] | 1 (≈ 1.72 µM) |
| O=C(COc1ccc(Cl)cc1)N[C@@H]1C(=O)N2C(C(=O)O)=C(Sc3ccccc3I)CS[C@H]12 [Cmpd 30, (7R)-7-[(p-Chlorophenoxyacetyl)amino]-3-(o-iodophenylthio)-3-cephem-4-carboxylic acid] | 0.5 (≈ 0.829 µM) |
| O=C(COc1ccc(Cl)cc1)N[C@@H]1C(=O)N2C(C(=O)O)=C(Sc3cc(Cl)ccc3Cl)CS[C@H]12 [Cmpd 31, (7R)-7-[(p-Chlorophenoxyacetyl)amino]-3-(2,5-dichlorophenylthio)-3-cephem-4-carboxylic acid] | 1 (≈ 1.83 µM) |
| COc1ccc(CC(=O)N[C@@H]2C(=O)N3C(C(=O)O)=C(Sc4cc(Cl)ccc4Cl)CS[C@H]23)cc1 [Cmpd 32, (7R)-7-[(p-Methoxyphenylacetyl)amino]-3-(2,5-dichlorophenylthio)-3-cephem-4-carboxylic acid] | 1 (≈ 1.9 µM) |
| O=C(Cc1ccccc1)N[C@@H]1C(=O)N2C(C(=O)O)=C(Sc3cc(F)ccc3Br)CS[C@H]12 [Cmpd 33, (7R)-7-[(Phenylacetyl)amino]-3-(2-bromo-5-fluorophenylthio)-3-cephem-4-carboxylic acid] | 1 (≈ 1.91 µM) |
| N#CCC(=O)N[C@@H]1C(=O)N2C(C(=O)O)=C(Sc3ccccc3-c3ccccc3)CS[C@H]12 [Cmpd 34, (7R)-7-[(Cyanoacetyl)amino]-3-(2-biphenylthio)-3-cephem-4-carboxylic acid] | 2 (≈ 4.43 µM) |
| O=C(CSc1ccccc1)N[C@@H]1C(=O)N2C(C(=O)O)=C(Sc3cc(Cl)ccc3Cl)CS[C@H]12 [Cmpd 35, (7R)-7-[(Phenylthioacetyl)amino]-3-(2,5-dichlorophenylthio)-3-cephem-4-carboxylic acid] | 0.5 (≈ 0.948 µM) |
| C=Cc1ccccc1SC1=C(C(=O)O)N2C(=O)[C@@H](NC(=O)Cc3ccccc3)[C@H]2SC1 [Cmpd 36, (7R)-7-[(Phenylacetyl)amino]-3-(2-vinylphenylthio)-3-cephem-4-carboxylic acid] | 2 (≈ 4.42 µM) |
| O=C(Cc1ccccc1)N[C@@H]1C(=O)N2C(C(=O)O)=C(Sc3ccccc3-c3cccs3)CS[C@H]12 [Cmpd 37, (7R)-7-[(Phenylacetyl)amino]-3-(2-(2-thienyl)phenylthio)-3-cephem-4-carboxylic acid] | 2 (≈ 3.93 µM) |
| O=C(Cc1ccccc1)N[C@@H]1C(=O)N2C(C(=O)O)=C(Sc3ccccc3CO)CS[C@H]12 [Cmpd 38, (7R)-7-[(Phenylacetyl)amino]-3-(2-hydroxymethylphenylthio)-3-cephem-4-carboxylic acid] | 4 (≈ 8.76 µM) |
| O=C(Cc1ccccc1)N[C@@H]1C(=O)N2C(C(=O)O)=C(Sc3ccc(Br)cc3Br)CS[C@H]12 [Cmpd 39, (7R)-7-[(Phenylacetyl)amino]-3-(2,4-dibromophenylthio)-3-cephem-4-carboxylic acid] | 0.5 (≈ 0.856 µM) |
| O=C(Cc1ccccc1)N[C@@H]1C(=O)N2C(C(=O)O)=C(Sc3ccc(C(F)(F)F)cc3)CS[C@H]12 [Cmpd 40, (7R)-7-[(Phenylacetyl)amino]-3-(4-trifluoromethylphenylthio)-3-cephem-4-carboxylic acid] | 4 (≈ 8.09 µM) |
| Nc1nc(/C(=N/O)C(=O)N[C@@H]2C(=O)N3C(C(=O)O)=C(Sc4ccccc4-c4ccccc4)CS[C@H]23)cs1 [Cmpd 42, (7R)-7-[(Z)-2-(aminothiazol-4-yl)-2-(hydroxyimino)acetamido]-3-(2-biphenylthio)-3-cephem-4-carboxylic acid] | 4 (≈ 7.22 µM) |
| COc1ccc(Cc2ccc(-c3ccccc3SC3=C(C(=O)O)N4C(=O)[C@@H](NC(=O)Cc5ccccc5)[C@H]4SC3)s2)cc1 [Cmpd 43, (7R)-7-[(Phenylacetyl)amino]-3-(2-(2-(4-methoxyphenylmethyl)thien-5-yl)phenylthio)-3-cephem-4-carboxylic acid] | 4 (≈ 6.36 µM) |
| CSc1ccccc1SC1=C(C(=O)O)N2C(=O)[C@@H](NC(=O)Cc3ccccc3)[C@H]2SC1 [Cmpd 44, (7R)-7-[(Phenylacetyl)amino]-3-(2-methylthiophenylthio)-3-cephem-4-carboxylic acid] | 2 (≈ 4.23 µM) |
| Cn1cc[n+](Cc2ccc(-c3ccccc3SC3=C(C(=O)[O-])N4C(=O)[C@@H](NC(=O)Cc5ccccc5)[C@H]4SC3)s2)c1 [Cmpd 45, (7R)-7-[(Phenylacetyl)amino]-3-(2-(2-(N-methylimidazoliummethyl)thien-5-yl)phenylthio)-3-cephem-4-carboxylic acid] | 4 (≈ 6.64 µM) |
| CC(C)(C)c1ccccc1SC1=C(C(=O)O)N2C(=O)[C@@H](NC(=O)Cc3ccccc3)[C@H]2SC1 [Cmpd 46, (7R)-7-[(Phenylacetyl)amino]-3-(2-tert-butylphenylthio)-3-cephem-4-carboxylic acid] | 1 (≈ 2.07 µM) |
| CC(C)Oc1ccccc1SC1=C(C(=O)O)N2C(=O)[C@@H](NC(=O)Cc3ccccc3)[C@H]2SC1 [Cmpd 47, (7R)-7-[(Phenylacetyl)amino]-3-(2-isopropyloxyphenylthio)-3-cephem-4-carboxylic acid] | 1 (≈ 2.06 µM) |
| Cn1cc[n+](Cc2ccoc2-c2ccccc2SC2=C(C(=O)[O-])N3C(=O)[C@@H](NC(=O)Cc4ccccc4)[C@H]3SC2)c1 [Cmpd 48, (7R)-7-[(Phenylacetyl)amino]-3-(2-(3-(N-methylimidazoliummethyl)furan-2-yl)phenylthio)-3-cephem-4-carboxylic acid] | 4 (≈ 6.82 µM) |
| N#Cc1ccc(SC2=C(C(=O)O)N3C(=O)[C@@H](NC(=O)Cc4ccccc4)[C@H]3SC2)c([N+](=O)[O-])c1 [Cmpd 49, (7R)-7-[(Phenylacetyl)amino]-3-(4-cyano-2-nitrophenylthio)-3-cephem-4-carboxylic acid] | 4 (≈ 8.06 µM) |
| O=Cc1ccccc1SC1=C(C(=O)O)N2C(=O)[C@@H](NC(=O)Cc3ccccc3)[C@H]2SC1 [Cmpd 50, (7R)-7-[(Phenylacetyl)amino]-3-(2-formylphenylthio)-3-cephem-4-carboxylic acid] | 2 (≈ 4.4 µM) |
| N#Cc1ccc(SC2=C(C(=O)O)N3C(=O)[C@@H](NC(=O)Cc4ccccc4)[C@H]3SC2)c(C#N)c1 [Cmpd 51, (7R)-7-[(Phenylacetyl)amino]-3-(2,4-dicyanophenylthio)-3-cephem-4-carboxylic acid] | 4 (≈ 8.39 µM) |
| N#CCC(=O)N[C@@H]1C(=O)N2C(C(=O)O)=C(Sc3ccccc3C#N)CS[C@H]12 [Cmpd 52, (7R)-7-[(Cyanoacetyl)amino]-3-(2-cyanophenylthio)-3-cephem-4-carboxylic acid] | 4 (≈ 9.99 µM) |
| N#Cc1ccccc1SC1=C(C(=O)O)N2C(=O)[C@@H](NC(=O)/C(=N\OC3CCCC3)c3csc(N)n3)[C@H]2SC1 [Cmpd 53, (7R)-7-[(Z)-2-(aminothiazol-4-yl)-2-(cyclopentyloxyimino)acetamido]-3-(2-cyanophenylthio)-3-cephem-4-carboxylic acid] | 4 (≈ 7.01 µM) |
| O=C(Cc1ccccc1)N[C@@H]1C(=O)N2C(C(=O)O)=C(Sc3cccc4ccccc34)CS[C@H]12 [Cmpd 54, (7R)-7-[(Phenylacetyl)amino]-3-(1-naphthalenylthio)-3-cephem-4-carboxylic acid] | 1 (≈ 2.1 µM) |
